According to patent publication US20210115104A1, “AMYLIN ANALOGUES” (Zealand Pharma A/S, priority 2015, published 2021):
*1 amine or outer side, *2 acyl side, *3 side chain or, on linkers, in order; H or OH if unused. Where a SMILES comes first, the peptide text is derived from it. Bridges are numbered along the chain shown (N, C = ends). [ ]: non-standard residue; d: D form. The star is where a group is joined. C20 diacid = O=C(O)CCCCCCCCCCCCCCCCCCC(=O)*; γGlu = O=C(O)[C@H](CCC(=O)[*:2])N[*:1]; Hyp = O=C(O)[C@@H]1C[C@@H](O)CN1; NMeI = CC[C@H](C)[C@H](NC)C(=O)O; Aad = N[C@@H](CCCC(=O)O)C(=O)O; Orn = NCCC[C@H](N)C(=O)O; Sar = CNCC(=O)O

Assays:
[1] = target: T1, human calcitonin receptor (hCTR2) (Homo sapiens, UniProt P30988); experiment: hCTR2 cAMP assay (AlphaScreen) in COS7 cells; assay type: cell-based; conditions: cAMP induction, COS7 cells expressing hCTR2; Table 1; read-out: hCTR2 EC50
T1 construct: expressed in transfected cells
T1 sequence (P30988 25-474): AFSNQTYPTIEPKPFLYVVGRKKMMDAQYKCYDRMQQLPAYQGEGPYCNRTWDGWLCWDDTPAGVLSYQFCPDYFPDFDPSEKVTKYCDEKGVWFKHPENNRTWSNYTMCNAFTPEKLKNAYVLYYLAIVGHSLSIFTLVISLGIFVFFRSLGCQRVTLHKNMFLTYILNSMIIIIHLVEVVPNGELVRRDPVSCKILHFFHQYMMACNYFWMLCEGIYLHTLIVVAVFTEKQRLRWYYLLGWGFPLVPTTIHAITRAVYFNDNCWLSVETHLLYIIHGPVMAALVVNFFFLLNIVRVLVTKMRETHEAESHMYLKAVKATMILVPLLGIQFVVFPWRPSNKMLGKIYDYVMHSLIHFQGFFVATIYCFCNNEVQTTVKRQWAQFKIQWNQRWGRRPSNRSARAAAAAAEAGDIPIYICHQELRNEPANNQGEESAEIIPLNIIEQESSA
Summary of the method: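 cAMP induction, read by AlphaScreen after lysis, gives EC50 values via 4PL curve fitting. Peptides were applied at rising concentrations for 15 min at 37 °C, with IBMX and 0.1% casein in HEPES-buffered Tyrode pH 7.4, to COS7 cells (no endogenous RAMPs) stably expressing human CTR2.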

[2] = target: T2, human amylin receptor 3 (hAMYR3), hCTR2 co-expressed with hRAMP3 (Homo sapiens, UniProt O60896+P30988); experiment: hAMYR3 cAMP assay (AlphaScreen) in COS7 cells; assay type: cell-based; conditions: cAMP induction, COS7 cells expressing hAMYR3; Table 1; read-out: hAMYR3 EC50
T2 construct: expressed in transfected cells
T2 sequence (P30988 25-474): T1 sequence (P30988 25-474)
T2 sequence (O60896 24-148 partner): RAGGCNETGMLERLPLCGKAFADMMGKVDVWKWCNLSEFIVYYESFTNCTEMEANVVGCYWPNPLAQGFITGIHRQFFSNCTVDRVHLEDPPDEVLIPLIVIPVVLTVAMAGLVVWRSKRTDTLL
Summary of the method: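 EC50 values derive from 4PL curve fits of cAMP (AlphaScreen) in lysates of RAMP-naive COS7 cells stably carrying hCTR2 plus hRAMP3. Peptide dilution series were applied for 15 min at 37 °C in pH 7.4 Tyrode buffer containing 100 µM IBMX and 0.1% casein.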

EC50 [1]	EC50 [2]	Compound
0.04 nM	0.07 nM	CC[C@H](C)[C@@H](C(=O)N[C@@H](CC(C)C)C(=O)N[C@@H](CO)C(=O)N[C@@H](CO)C(=O)N[C@H](C(=O)N[C@@H](CCC(=O)O)C(=O)N[C@H](C(=O)NCC(=O)N[C@@H](CO)C(=O)N[C@@H](CO)C(=O)N[C@H](C(=O)N1CCC[C@H]1C(N)=O)[C@@H](C)O)C(C)C)[C@@H](C)O)N(C)C(=O)[C@H](C)NC(=O)CN(C)C(=O)[C@H](Cc1ccccc1)NC(=O)[C@H](CO)NC(=O)[C@H](CO)NC(=O)[C@H](CCCNC(=N)N)NC(=O)[C@H](Cc1c[nH]cn1)NC(=O)[C@H](CC(C)C)NC(=O)[C@H](Cc1ccccc1)NC(=O)[C@H](Cc1c[nH]cn1)NC(=O)[C@H](C)NC(=O)[C@H](CC(C)C)NC(=O)[C@H](CCCNC(=N)N)NC(=O)[C@H](CCC(=O)O)NC(=O)[C@@H](NC(=O)[C@H](C)NC(=O)[C@@H]1CSSC[C@H](NC(=O)[C@H](CCCNC(=N)N)NC(=O)CC[C@H](NC(=O)CCCCCCCCCCCCCCCCCCC(=O)O)C(=O)O)C(=O)NCC(=O)N[C@@H]([C@@H](C)O)C(=O)N[C@@H](C)C(=O)N[C@@H]([C@@H](C)O)C(=O)N1)[C@@H](C)O [Compound 37, [19CD]-isoGlu-R-C( )-GTAT-C( )-ATERLAHFLHRSSF-Gly(Me)-A-Ile(Me)-LSSTEVGSSTP-NH2] ({C20 diacid-γGlu}-RCGTATCATERLAHFLHRSSF[Sar]A[NMeI]LSSTEVGSSTP-NH2; disulfide 2-7)
0.1 nM	0.14 nM	CC[C@H](C)[C@@H](C(=O)N[C@@H](CC(C)C)C(=O)N[C@@H](CO)C(=O)N[C@@H](CO)C(=O)N[C@H](C(=O)N[C@@H](CCC(=O)O)C(=O)N[C@H](C(=O)NCC(=O)N[C@@H](CO)C(=O)N[C@@H](CO)C(=O)N[C@H](C(=O)N1CCC[C@H]1C(N)=O)[C@@H](C)O)C(C)C)[C@@H](C)O)N(C)C(=O)[C@H](C)NC(=O)CN(C)C(=O)[C@H](Cc1ccccc1)NC(=O)[C@H](CO)NC(=O)[C@H](CO)NC(=O)[C@H](CCCNC(=N)N)NC(=O)[C@@H](NC(=O)[C@H](CC(C)C)NC(=O)[C@H](Cc1ccccc1)NC(=O)[C@H](Cc1c[nH]cn1)NC(=O)[C@H](C)NC(=O)[C@H](CC(C)C)NC(=O)[C@H](CCCNC(=N)N)NC(=O)[C@H](CCC(=O)O)NC(=O)[C@@H](NC(=O)[C@H](C)NC(=O)[C@@H]1CSSC[C@H](NC(=O)[C@H](CCCNC(=N)N)NC(=O)CC[C@H](NC(=O)CCCCCCCCCCCCCCCCCCC(=O)O)C(=O)O)C(=O)NCC(=O)N[C@@H]([C@@H](C)O)C(=O)N[C@@H](C)C(=O)N[C@@H]([C@@H](C)O)C(=O)N1)[C@@H](C)O)[C@@H](C)O [Compound 46, [19CD]-isoGlu-R-C( )-GTAT-C( )-ATERLAHFLTRSSF-Gly(Me)-A-Ile(Me)-LSSTEVGSSTP-NH2] ({C20 diacid-γGlu}-RCGTATCATERLAHFLTRSSF[Sar]A[NMeI]LSSTEVGSSTP-NH2; disulfide 2-7)

The remaining lines, values behind:

Compound	EC50 [1]	EC50 [2]
CC[C@H](C)[C@@H](C(=O)N[C@@H](CC(C)C)C(=O)N[C@@H](CO)C(=O)N[C@@H](CO)C(=O)N[C@H](C(=O)N[C@@H](CCC(=O)O)C(=O)N[C@H](C(=O)NCC(=O)N[C@@H](CO)C(=O)N[C@@H](CO)C(=O)N[C@H](C(=O)N1C[C@H](O)C[C@H]1C(N)=O)[C@@H](C)O)C(C)C)[C@@H](C)O)N(C)C(=O)[C@H](C)NC(=O)CN(C)C(=O)[C@H](Cc1ccccc1)NC(=O)[C@H](CO)NC(=O)[C@H](CO)NC(=O)[C@H](CCCNC(=N)N)NC(=O)[C@H](CCC(N)=O)NC(=O)[C@H](CC(C)C)NC(=O)[C@H](Cc1ccccc1)NC(=O)[C@H](Cc1c[nH]cn1)NC(=O)[C@H](C)NC(=O)[C@H](CC(C)C)NC(=O)[C@H](CCCNC(=N)N)NC(=O)[C@H](CCC(=O)O)NC(=O)[C@@H](NC(=O)[C@H](C)NC(=O)[C@@H]1CSSC[C@H](NC(=O)[C@H](CCCNC(=N)N)NC(=O)CC[C@H](NC(=O)CCCCCCCCCCCCCCCCCCC(=O)O)C(=O)O)C(=O)N2CCC[C@H]2C(=O)N[C@@H]([C@@H](C)O)C(=O)N[C@@H](C)C(=O)N[C@@H]([C@@H](C)O)C(=O)N1)[C@@H](C)O [Compound 70, [19CD]-isoGlu-R-C( )-PTAT-C( )-ATERLAHFLQRSSF-Gly(Me)-A-Ile(Me)-LSSTEVGSST-Hyp-NH2] ({C20 diacid-γGlu}-RCPTATCATERLAHFLQRSSF[Sar]A[NMeI]LSSTEVGSST[Hyp]-NH2; disulfide 2-7)	0.35 nM	0.36 nM
CC[C@H](C)[C@@H](C(=O)N[C@@H](CC(C)C)C(=O)N[C@@H](CO)C(=O)N[C@@H](CO)C(=O)N[C@H](C(=O)N[C@@H](CCC(=O)O)C(=O)N[C@H](C(=O)NCC(=O)N[C@@H](CO)C(=O)N[C@@H](CCCN)C(=O)N[C@H](C(=O)N1CCC[C@H]1C(N)=O)[C@@H](C)O)C(C)C)[C@@H](C)O)N(C)C(=O)[C@H](C)NC(=O)CN(C)C(=O)[C@H](Cc1ccccc1)NC(=O)[C@H](CO)NC(=O)[C@H](CO)NC(=O)[C@H](CCCNC(=N)N)NC(=O)[C@@H](NC(=O)[C@H](CC(C)C)NC(=O)[C@H](Cc1ccccc1)NC(=O)[C@H](Cc1c[nH]cn1)NC(=O)[C@H](C)NC(=O)[C@H](CC(C)C)NC(=O)[C@H](CCCNC(=N)N)NC(=O)[C@H](CCC(=O)O)NC(=O)[C@@H](NC(=O)[C@H](C)NC(=O)[C@@H]1CSSC[C@H](NC(=O)[C@H](CCCNC(=N)N)NC(=O)CC[C@H](NC(=O)CCCCCCCCCCCCCCCCCCC(=O)O)C(=O)O)C(=O)NCC(=O)N[C@@H]([C@@H](C)O)C(=O)N[C@@H](C)C(=O)N[C@@H]([C@@H](C)O)C(=O)N1)[C@@H](C)O)[C@@H](C)O [Compound 47, [19CD]-isoGlu-R-C( )-GTAT-C( )-ATERLAHFLTRSSF-Gly(Me)-A-Ile(Me)-LSSTEVGS-Orn-TP-NH2] ({C20 diacid-γGlu}-RCGTATCATERLAHFLTRSSF[Sar]A[NMeI]LSSTEVGS[Orn]TP-NH2; disulfide 2-7)	0.1 nM	0.19 nM
CC[C@H](C)[C@@H](C(=O)N[C@@H](CC(C)C)C(=O)N[C@@H](CO)C(=O)N[C@@H](CO)C(=O)N[C@H](C(=O)N[C@@H](CCC(=O)O)C(=O)N[C@H](C(=O)NCC(=O)N[C@@H](CO)C(=O)N[C@@H](CC(N)=O)C(=O)N[C@H](C(=O)N1C[C@H](O)C[C@H]1C(N)=O)[C@@H](C)O)C(C)C)[C@@H](C)O)N(C)C(=O)[C@H](C)NC(=O)CN(C)C(=O)[C@H](Cc1ccccc1)NC(=O)[C@H](CO)NC(=O)[C@H](CO)NC(=O)[C@H](CCCNC(=N)N)NC(=O)[C@H](CCCC(=O)O)NC(=O)[C@H](CC(C)C)NC(=O)[C@H](Cc1ccccc1)NC(=O)[C@H](Cc1c[nH]cn1)NC(=O)[C@H](C)NC(=O)[C@H](CC(C)C)NC(=O)[C@H](CCCNC(=N)N)NC(=O)[C@H](CCC(N)=O)NC(=O)[C@@H](NC(=O)[C@H](C)NC(=O)[C@@H]1CSSC[C@H](NC(=O)[C@H](CCCNC(=N)N)NC(=O)CC[C@H](NC(=O)CCCCCCCCCCCCCCCCCCC(=O)O)C(=O)O)C(=O)N[C@@H](CC(N)=O)C(=O)N[C@@H]([C@@H](C)O)C(=O)N[C@@H](C)C(=O)N[C@@H]([C@@H](C)O)C(=O)N1)[C@@H](C)O [Compound 50, [19CD]-isoGlu-R-C( )-NTAT-C( )-ATQRLAHFL-Aad-RSSF-Gly(Me)-A-Ile(Me)-LSSTEVGSNT-Hyp-NH2] ({C20 diacid-γGlu}-RCNTATCATQRLAHFL[Aad]RSSF[Sar]A[NMeI]LSSTEVGSNT[Hyp]-NH2; disulfide 2-7)	0.12 nM	0.19 nM
